≈ marks a conversion by molar mass, not a printed value.
What was measured:
Format in all cases: cell-based
N. gonorrhoeae WHO K = experiment: Liquid broth MIC in Fastidious broth; details: Neisseria gonorrhoeae, read-out: Minimum Inhibitory Concentration, N. gonorrhoeae WHO K
How it was run: (§1)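 Mosaic-PBP2 strains grown 24 h on chocolate agar (36 °C, 5% CO2), then direct-suspended in saline and OD600-adjusted. Twofold compound dilutions in Fastidious broth inoculated at 5×10^5 CFU/mL and incubated ~24 h at 36 °C, 5% CO2. MIC read visually as lowest concentration with <10% growth versus full-growth wells.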

N. gonorrhoeae WHO G = experiment: Liquid broth MIC in Fastidious broth; details: Neisseria gonorrhoeae; N. gonorrhoeae strain WHO G; Fastidious broth; read-out: Minimum Inhibitory Concentration, N. gonorrhoeae WHO G
How it was run: (§2)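 Colonies were swabbed from chocolate agar after 24 h growth and standardised by optical density at 600 nm. Compounds were serially diluted twofold in Fastidious broth, and bacteria added to give 5×10^5 CFU/mL. After about 24 h at 36 °C in 5% CO2, the lowest concentration allowing under 10% growth was taken as MIC.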

N. gonorrhoeae FA1090 = experiment: Liquid broth MIC in Fastidious broth; details: Neisseria gonorrhoeae; N. gonorrhoeae strain FA1090; Fastidious broth; read-out: Minimum Inhibitory Concentration, N. gonorrhoeae FA1090
How it was run: as §2

N. gonorrhoeae H041 = experiment: Liquid broth MIC in Fastidious broth; details: Neisseria gonorrhoeae, H041, read-out: Minimum Inhibitory Concentration, N. gonorrhoeae H041
How it was run: as §1

[1] = system: N. gonorrhoeae ATCC 49226; experiment: Liquid broth MIC in Fastidious broth; details: Neisseria gonorrhoeae, ATCC49226; N. gonorrhoeae strain ATCC 49226; Fastidious broth; read-out: Minimum Inhibitory Concentration, N. gonorrhoeae ATCC 49226
How it was run: as §2

N. gonorrhoeae WHO L = experiment: Liquid broth MIC in Fastidious broth; details: Neisseria gonorrhoeae; N. gonorrhoeae strain WHO L; Fastidious broth; read-out: Minimum Inhibitory Concentration, N. gonorrhoeae WHO L
How it was run: as §2

E. coli D22 = experiment: Broth microdilution MIC in CAMHB; details: Escherichia coli; E. coli D22 (hyper-permeable); MHB; read-out: Minimum Inhibitory Concentration, E. coli D22
How it was run: (§3)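 CLSI broth microdilution in CAMHB: 2-fold compound dilutions inoculated at 2-8×10^5 CFU/mL from 3-5 h log-phase cultures. Incubated at 37 °C for 16-20 h (Enterobacteriaceae, Pseudomonas); MIC read visually as lowest concentration without growth. Strains include hyper-permeable and efflux-deficient mutants.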

E. coli AG100 = experiment: Broth microdilution MIC in CAMHB; details: Escherichia coli; E. coli AG100 (wild-type parent); MHB; read-out: Minimum Inhibitory Concentration, E. coli AG100
How it was run: as §3

A. baumannii ATCC 19606 = experiment: Broth microdilution MIC in CAMHB; details: Acinetobacter baumannii, ATCC19606; MHB; read-out: Minimum Inhibitory Concentration, A. baumannii ATCC 19606
How it was run: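 Per CLSI broth microdilution, colonies were grown 3-5 h at 37° C in cation-adjusted Mueller Hinton broth, then diluted to a starting inoculum of 2-8×10^5 CFU/mL against 2-fold serial compound dilutions. Plates were incubated 16-20 h at 37° C, and MIC was read visually as the lowest concentration with no growth.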

E. coli AG100A = experiment: Broth microdilution MIC in CAMHB; details: Escherichia coli, read-out: Minimum Inhibitory Concentration, E. coli AG100A
How it was run: as §3

E. coli ATCC 25922 = experiment: Broth microdilution MIC in CAMHB; details: Escherichia coli, ATCC25922; E. coli ATCC 25922; MHB; read-out: Minimum Inhibitory Concentration, E. coli 25922
How it was run: as §3

Compound | MIC (N. gonorrhoeae WHO K) [µg/mL] | MIC (N. gonorrhoeae WHO G) [µg/mL] | MIC (N. gonorrhoeae FA1090) [µg/mL] | MIC (N. gonorrhoeae H041) [µg/mL] | MIC [1] [µg/mL] | MIC (N. gonorrhoeae WHO L) [µg/mL] | MIC (E. coli D22) [µg/mL] | MIC (E. coli AG100) [µg/mL] | MIC (A. baumannii ATCC 19606) [µg/mL] | MIC (E. coli AG100A) [µg/mL] | MIC (E. coli ATCC 25922) [µg/mL]
CCN1CCN(C(=O)NC(C(=O)N[C@H]2Cc3cccc(C(=O)O)c3OB2O)c2cc(O)cc(O)c2)C(=O)C1=O (mixture of isomers) [Example 79, (3R)-3-(2-(3,5-dihydroxyphenyl)-2-(4-ethyl-2,3-dioxopiperazine-1-carboxamido)acetamido)-2-hydroxy-3,4-dihydro-2H-benzo[e][1,2]oxaborinine-8-carboxylic acid] | 16 to 32 | 1 to 2 | < 0.125 | 16 to 32 | 1 to 2 | 16 to 32 | 2 to 4 | 8 to 16 | > 128 | 2 to 4 | 8 to 16
CCN1CCN(C(=O)N[C@H](C(=O)N[C@H]2Cc3cccc(C(=O)O)c3OB2O)c2cc(O)cc(O)c2)C(=O)C1=O (single isomer, unassigned) [Example 81] | 16 to 32 (≈ 29.6 to 59.2 µM) | 0.25 to 0.5 (≈ 0.463 to 0.925 µM) | 0.25 to 0.5 (≈ 0.463 to 0.925 µM) | 16 to 32 (≈ 29.6 to 59.2 µM) | 4 to 8 (≈ 7.4 to 14.8 µM) | 16 to 32 (≈ 29.6 to 59.2 µM) | 8 to 16 (≈ 14.8 to 29.6 µM) | 32 to 64 (≈ 59.2 to 118 µM) | > 128 | 8 to 16 (≈ 14.8 to 29.6 µM) | 32 to 64 (≈ 59.2 to 118 µM)
CCN1CCN(C(=O)N[C@@H](C(=O)N[C@H]2Cc3cccc(C(=O)O)c3OB2O)c2cc(O)cc(O)c2)C(=O)C1=O (single isomer, unassigned) [Example 82] | 4 to 8 (≈ 7.4 to 14.8 µM) | 0.25 to 0.5 (≈ 0.463 to 0.925 µM) | < 0.125 | 4 to 8 (≈ 7.4 to 14.8 µM) | 4 to 8 (≈ 7.4 to 14.8 µM) | 16 to 32 (≈ 29.6 to 59.2 µM) | 2 to 4 (≈ 3.7 to 7.4 µM) | 8 to 16 (≈ 14.8 to 29.6 µM) | 32 to 64 (≈ 59.2 to 118 µM) | 2 to 4 (≈ 3.7 to 7.4 µM) | 32 to 64 (≈ 59.2 to 118 µM)
NCCN1CCN(C(=O)N[C@H](C(=O)N[C@H]2Cc3cccc(C(=O)O)c3OB2O)c2ccc(C(=O)O)cc2)C(=O)C1=O (single isomer, unassigned) [Example 83] | > 64 | 4 to 8 (≈ 7.05 to 14.1 µM) | 1 to 2 (≈ 1.76 to 3.53 µM) | > 64 | 16 to 32 (≈ 28.2 to 56.4 µM) | > 64 | 2 to 4 (≈ 3.53 to 7.05 µM) | 32 to 64 (≈ 56.4 to 113 µM) | > 128 | 8 to 16 (≈ 14.1 to 28.2 µM) | 32 to 64 (≈ 56.4 to 113 µM)
NCCN1CCN(C(=O)N[C@@H](C(=O)N[C@H]2Cc3cccc(C(=O)O)c3OB2O)c2ccc(C(=O)O)cc2)C(=O)C1=O (single isomer, unassigned) [Example 84] | 16 to 32 (≈ 28.2 to 56.4 µM) | 1 to 2 (≈ 1.76 to 3.53 µM) | 1 to 2 (≈ 1.76 to 3.53 µM) | > 64 | 4 to 8 (≈ 7.05 to 14.1 µM) | 16 to 32 (≈ 28.2 to 56.4 µM) | 2 to 4 (≈ 3.53 to 7.05 µM) | 8 to 16 (≈ 14.1 to 28.2 µM) | > 128 | 2 to 4 (≈ 3.53 to 7.05 µM) | 8 to 16 (≈ 14.1 to 28.2 µM)
NCCN1CCN(C(=O)N[C@H](C(=O)N[C@H]2Cc3cccc(C(=O)O)c3OB2O)c2ccc(O)cc2Cl)C(=O)C1=O (single isomer, unassigned) [Example 85] | > 64 | > 64 | 4 to 8 (≈ 6.97 to 13.9 µM) | > 64 | > 64 | > 64 | 32 to 64 (≈ 55.8 to 112 µM) | > 128 | > 128 | 32 to 64 (≈ 55.8 to 112 µM) | > 128
NCCN1CCN(C(=O)N[C@@H](C(=O)N[C@H]2Cc3cccc(C(=O)O)c3OB2O)c2ccc(O)cc2Cl)C(=O)C1=O (single isomer, unassigned) [Example 86] | > 64 | 4 to 8 (≈ 6.97 to 13.9 µM) | 1 to 2 (≈ 1.74 to 3.49 µM) | > 64 | > 64 | > 64 | 8 to 16 (≈ 13.9 to 27.9 µM) | 32 to 64 (≈ 55.8 to 112 µM) | > 128 | 2 to 4 (≈ 3.49 to 6.97 µM) | 32 to 64 (≈ 55.8 to 112 µM)

From patent publication US20230114728A1 (Venatorx Pharmaceuticals, Inc., priority 2019, published 2023)
